Experimental findings from patent US8937063B2 (Trustees of Tufts College, priority 2010, dated 2015) are described below.

Data set [1] in a line: Single oral dose pharmacokinetic comparison niacin, ARI-001, 2230C in wild type mice. The data set is classed as in vivo, C57BL/6 mice. To be noted: single bolus oral gavage, mouse plasma; for AUC / Cmax / Tmax / half-life: C57BL/6; for half-life: read-out: half-life (t1/2) (converted). The source says:
Compound 2230C has the structure

For data set [2], the system named is high fat+fructose (HF/HS) diet hamsters. The data set can be described thus: 18-day oral dosing lipid study in HF/HS hamsters. In kind it is in vivo, male Golden Syrian hamsters. To be noted: niacin 1200 mg/kg oral once daily 18 days, mean ± SD. The procedure:
We examined the effects of diet modulation on the lipid profile of male Syrian Golden hamsters. Hamsters were ordered from Charles River Labs (Wilmington, Mass.), and requested to be 111-120 g in weight (correspondingly 56-61 days old). Hamsters were kept in cages of 4-5 per cage, and maintained on a standard light cycle of 12 hours on/12 hours off. All diets were obtained from Dyets, Inc. (Bethlehem, Pa.). “Normal Diet” was a standard rodent chow, catalog #5001, produced into pellets. Water and this standard chow diet were available to this group of hamsters ad libitum. Food was added to cages as needed, but no less frequently than twice per week. “High Fat Diet” was the same standard rodent chow supplemented with the following: 11.5% corn oil, 11.5% coconut oil, 0.5% cholesterol, and 0.25% deoxycholate. This is also available directly from Dyets, Inc., as catalog #611201. Both diets were ordered in 10 kg batches and stored at 4° C. for durations of the experiments (4-8 weeks), and at −20° C. for longer storage (up to six months). Water and this high fat diet were available to this group of hamsters ad libitum. The “High Fat+Fructose” group was fed the same fat-supplemented chow as the “high fat diet” group (#611201), but water was supplemented with fructose to a final concentration of 10%. Fructose was supplied from Now Foods (catalog #6931) and distributed by Lucky Vitamin (catalog #WB48432). Fructose water was prepared by adding 400 g of fructose to 4 L of water and stirring at room temperature until dissolved. Fructose water was stored at 4° C. until use. When provided to hamsters, fructose water was kept in a water bottle in the hamster cages at room temperature, exactly as standard water was. Fructose water and high fat chow were provided to this group of hamsters ad libitum. All animals remained on their respective diets for 21 days.
To begin this experiment, hamsters were randomly assigned to groups defined by the diet modifications above. After a fixed time, blood was collected from hamsters (N=3-4) to determine the lipid contents of the plasma. Because of limitations in the ability to adequately collect blood from hamsters, all blood samples were obtained via a terminal cardiac puncture preceded by asphyxiation with carbon dioxide. Blood (approximately 2 mL volume) was collected with a 22 G needle into a 5 mL syringe and transferred to a K2EDTA tube. The samples were kept on ice until centrifugation (14,000 rpm for 10 minutes at 4° C.) to separate plasma. Plasma was then aliquoted to tubes for storage at −80° C. until analysis.
Lipid parameters were determined using commercially available kits from Wako USA (Richmond, Va.) according to manufacturer's directions.
Male Golden Syrian hamsters were purchased from Charles River Labs (111-120 g, 56-61 days) and acclimated to a high fat+fructose (herein, referred to as “HF/HS”) diet as described above for two weeks. Hamsters were assigned into cohorts by body weight after two weeks' acclimation to the diet. […] Hamsters were dosed once per day for a total of 18 days. All animals remained on the above-described HF/HS diet throughout the dosing period. Dosing solutions for each cohort were prepared for 7 days at a time, although enough was prepared to last for 8 days. Each solution was stored at room temperature between administrations. Cohorts were defined according to Table 2 below.

Data set [3] is described as follows: Human clinical trial, single oral doses: serum concentration. In kind it is in vivo. To be noted: in vivo, 1500 mg, read-out: Cmax. As for the experimental part:
Five periods of single dose escalation, with 8 subjects per cohort (6 drug: 2 placebo) involve a total 40 subjects. Appropriately blinded matching placebos are provided. Cohort 1 receives 500 mg of ARI-001 formulated as a single oral tablet, plus eleven placebo tablets; Cohort 2, […] of ARI-001, plus ten placebo tablets; Cohort 3, […] of ARI-001, plus eight placebo tablets; Cohort 4, […] of ARI-001, plus four placebo tablets; Corhort 5, […] of ARI-001. Placebo-only subjects take twelve placebo tablets. Each tablet is a compressed, film-coated tablet suitable for oral administration.
Pharmacokinetic samples are collected at 0-45 min pre-dose and at 0.5, 1, 1.5, 2, 4, 6, 8, 12, 24, 30 and 168 hours after dosing. […]
[…] […] Analysis of all samples is performed at a central laboratory.

Molecules are shown by their SMILES.

For orientation: AUC means the area under the concentration-time curve, a measure of exposure. Read a low AUC as less exposure. A word on the Cmax: it is the maximum level reached in the sampled fluid or tissue. For orientation: Tmax means the time at which the peak concentration occurs. `O=C(O)c1ccc(CCN2CCCC2)nc1` [Compound 2230C]: in data set [1], the exposure (AUC) stood at 686 µM·h, the highest level (Cmax) was 126 µM, the time to peak (Tmax) was 0.31 h and the half-life is 3.47 h. In addition, in data set [1], the “AUC (% Niacin)” value is on record as 5.8 % Niacin, the “C24 h/Cmax” value was found to be 2.1%, the “Cmax (% Niacin)” value was 3.0 % Niacin and the Cmax/AUC0-24 came out at 0.18 h⁻¹.
In turn, `O=C(O)c1cccnc1` [Niacin, nicotinic acid] returned an HDL/TC in data set [2] of 0.17 ± 0.11. In addition, in data set [2] (plasma), the “FFA (free fatty acids)” value worked out at 1.82 ± 0.69 mEq/L, the HDL was 79 ± 26 mg/dL, the LDL was found to be 170 ± 52 mg/dL and the “TG (triglycerides)” value came out at 1555 ± 808 mg/dL. Further, in data set [1], the area under the curve (AUC) turned out to be 11700 µM·h, the highest concentration (Cmax) came out at 4090 µM, the time of peak concentration (Tmax) came to 0.5 h and the half-life was 1.75 h. Besides, in data set [1], the “AUC (% Niacin)” value stood at 100 % Niacin, the “C24 h/Cmax” value is recorded as 0.02% and the “Cmax (% Niacin)” value is reported as 100 % Niacin. In addition, the Cmax in data set [3] is about 30000 ng/mL.
